Assay results: patent US20240270762A1, “PENICILLIN-BINDING PROTEIN INHIBITORS” (priority 2021, published 2024)
pEC50: −log10 of the molar value. In brackets after ≈: the same amount, converted by molar mass. Where two headings read alike, the source gives them in different places.

Assays:
A. baumannii PBP1a = biological target: T1, A. baumannii PBP1a (Acinetobacter baumannii, UniProt A0ABX6CK30); assay: Bocillin-FL competition binding via gel filtration, A. baumannii PBP1a; conditions: competition binding assay using Bocillin-FL via gel filtration; read-out: A. baumannii PBP1a Potency
T1 sequence (A0ABX6CK30 1-851): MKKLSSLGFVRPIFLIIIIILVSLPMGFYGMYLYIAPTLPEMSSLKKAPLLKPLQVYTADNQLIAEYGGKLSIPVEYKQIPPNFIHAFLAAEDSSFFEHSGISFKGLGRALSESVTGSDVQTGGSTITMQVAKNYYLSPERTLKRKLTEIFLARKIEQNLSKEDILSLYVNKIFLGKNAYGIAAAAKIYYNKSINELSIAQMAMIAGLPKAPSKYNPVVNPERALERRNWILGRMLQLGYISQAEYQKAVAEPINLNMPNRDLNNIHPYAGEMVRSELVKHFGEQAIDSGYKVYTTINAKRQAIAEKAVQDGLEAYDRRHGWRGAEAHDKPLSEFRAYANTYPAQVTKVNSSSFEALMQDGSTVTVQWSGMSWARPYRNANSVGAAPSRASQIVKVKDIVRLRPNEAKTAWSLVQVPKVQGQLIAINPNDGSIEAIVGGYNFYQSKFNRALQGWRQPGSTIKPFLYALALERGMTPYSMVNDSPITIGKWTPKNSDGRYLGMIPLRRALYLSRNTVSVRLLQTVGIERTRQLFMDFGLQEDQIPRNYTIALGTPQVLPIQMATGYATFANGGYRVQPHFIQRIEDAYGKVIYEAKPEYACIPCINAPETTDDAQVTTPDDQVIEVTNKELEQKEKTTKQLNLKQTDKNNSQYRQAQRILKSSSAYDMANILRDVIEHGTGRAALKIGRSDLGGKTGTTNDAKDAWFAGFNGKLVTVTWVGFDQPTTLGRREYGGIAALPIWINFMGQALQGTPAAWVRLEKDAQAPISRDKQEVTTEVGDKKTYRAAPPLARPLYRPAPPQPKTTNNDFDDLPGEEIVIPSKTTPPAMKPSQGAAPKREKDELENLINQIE
Summary of the method: (§1)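 Competitive equilibrium binding with Bocillin-FL reporter: PBP pre-incubated with inhibitor dilutions, Bocillin-FL added, 15 min incubation. Labelled enzyme isolated by size-exclusion spin plates, fluorescence measured; EC50 obtained by fitting bound fraction against inhibitor concentration with a Hill-coefficient model.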

A. baumannii PBP2 = A. baumannii PBP2 (Acinetobacter baumannii, UniProt D0C8Z9); assay: Bocillin-FL competition binding via gel filtration, A. baumannii PBP2
Summary of the method: as §1

P. aeruginosa ATCC 27853 = assay: microbe, parasite or virus in culture; format: cell-based; conditions: Pseudomonas aeruginosa, ATCC27853, read-out: Minimum inhibitory concentration, P. aeruginosa ATCC 27853
A. baumannii ATCC 17978 = assay: microbe, parasite or virus in culture; format: cell-based; conditions: Acinetobacter baumannii
A. baumannii ATCC 19606 = assay: microbe, parasite or virus in culture; format: cell-based; conditions: Acinetobacter baumannii
P. aeruginosa ATCC 35151 = assay: microbe, parasite or virus in culture; format: cell-based; conditions: Pseudomonas aeruginosa, ATCC35151, read-out: Minimum inhibitory concentration, P. aeruginosa ATCC 35151
A. baumannii 1258916 = assay: microbe, parasite or virus in culture; format: cell-based, Acinetobacter baumannii
A. baumannii CDC-0033 = assay: microbe, parasite or virus in culture; format: cell-based; conditions: Acinetobacter baumannii
A. baumannii CDC-0036 = assay: microbe, parasite or virus in culture; format: cell-based; conditions: Acinetobacter baumannii
A. baumannii CDC-0045 = assay: microbe, parasite or virus in culture; format: cell-based; conditions: Acinetobacter baumannii
[1] = test system: B. humptydooensis ATCC BAA-2767; assay: microbe, parasite or virus in culture; format: cell-based; conditions: Burkholderia humptydooensis, ATCCBAA2767, read-out: Minimum inhibitory concentration (MIC), B. humptydooensis ATCC BAA-2767
P. aeruginosa CDC-0110 = assay: microbe, parasite or virus in culture; format: cell-based; conditions: Pseudomonas aeruginosa, CDC0110, read-out: Minimum inhibitory concentration, P. aeruginosa CDC-0110
[2] = ATCC17978, read-out: MIC, A. baumannii ATCC 17978
[3] = ATCC19606, read-out: MIC, A. baumannii ATCC 19606
[4] = Acinetobacter baumannii, 1258916, read-out: MIC, A. baumannii 1258916
[5] = CDC0033, read-out: MIC, A. baumannii CDC-0033
[6] = CDC0036, read-out: MIC, A. baumannii CDC-0036
[7] = CDC0045, read-out: MIC, A. baumannii CDC-0045

A. baumannii PBP2, sequence (D0C8Z9 whole entry): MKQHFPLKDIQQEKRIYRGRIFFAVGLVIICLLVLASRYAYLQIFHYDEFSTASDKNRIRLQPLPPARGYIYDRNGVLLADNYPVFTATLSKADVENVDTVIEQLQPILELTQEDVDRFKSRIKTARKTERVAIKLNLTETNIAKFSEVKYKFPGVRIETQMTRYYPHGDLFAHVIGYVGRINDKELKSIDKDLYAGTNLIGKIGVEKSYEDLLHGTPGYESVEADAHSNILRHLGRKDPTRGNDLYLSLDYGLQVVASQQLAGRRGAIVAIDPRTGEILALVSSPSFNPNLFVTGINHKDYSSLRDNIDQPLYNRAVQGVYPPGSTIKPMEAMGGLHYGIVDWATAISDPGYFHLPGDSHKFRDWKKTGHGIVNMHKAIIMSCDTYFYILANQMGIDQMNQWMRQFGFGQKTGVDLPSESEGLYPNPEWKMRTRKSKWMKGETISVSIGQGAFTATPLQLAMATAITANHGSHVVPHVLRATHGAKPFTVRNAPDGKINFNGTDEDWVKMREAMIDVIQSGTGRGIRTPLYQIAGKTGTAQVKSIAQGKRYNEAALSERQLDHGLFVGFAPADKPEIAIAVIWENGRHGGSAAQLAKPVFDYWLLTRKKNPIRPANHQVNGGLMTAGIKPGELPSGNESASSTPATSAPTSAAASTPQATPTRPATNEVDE

Row | Structure (SMILES) | pEC50 (A. baumannii PBP1a) | pEC50 (A. baumannii PBP2) | MIC (P. aeruginosa ATCC 27853) | MIC (A. baumannii ATCC 17978; ATCC17978, read-out: Minimum inhibitory concentration (MIC), A. baumannii ATCC 17978) | MIC (A. baumannii ATCC 19606; ATCC19606, read-out: Minimum inhibitory concentration (MIC), A. baumannii ATCC 19606) | MIC (P. aeruginosa ATCC 35151) | MIC (A. baumannii 1258916; Acinetobacter baumannii, 1258916, read-out: Minimum inhibitory concentration (MIC), A. baumannii 1258916) | MIC (A. baumannii CDC-0033; CDC0033, read-out: Minimum inhibitory concentration (MIC), A. baumannii CDC-0033) | MIC (A. baumannii CDC-0036; CDC0036, read-out: Minimum inhibitory concentration (MIC), A. baumannii CDC-0036) | MIC (A. baumannii CDC-0045; CDC0045, read-out: Minimum inhibitory concentration (MIC), A. baumannii CDC-0045) | MIC [1] | MIC (P. aeruginosa CDC-0110) | MIC (A. baumannii ATCC 17978; [2]) | MIC (A. baumannii ATCC 19606; [3]) | MIC (A. baumannii 1258916; [4]) | MIC (A. baumannii CDC-0033; [5]) | MIC (A. baumannii CDC-0036; [6]) | MIC (A. baumannii CDC-0045; [7])
1 | O=C(O)c1c(F)ccc2c1OB(O)[C@@H](NC(=O)C(NC(=O)N1CCN(C3CCN(C(=O)Nc4ccc(F)c(O)c4F)CC3)C(=O)C1=O)c1cc(F)c(O)c(O)c1Cl)C2 (stereo partly drawn) [Example 486, (3R)-3-(2-(2-chloro-5-fluoro-3,4-dihydroxyphenyl)-2-(4-(1-((2,4-difluoro-3-hydroxyphenyl)carbamoyl)piperidin-4-yl)-2,3-dioxopiperazine-1-carboxamido)acetamido)-7-fluoro-2-hydroxy-3,4-dihydro-2H-benzo[e][1,2]oxaborinine-8-carboxylic acid] | > 5.00 | > 5.00 | 2 to 4 µg/mL (≈ 2.39 to 4.78 µM) | < 1 µg/mL | < 1 µg/mL | < 1 µg/mL | < 1 µg/mL | 2 to 4 µg/mL (≈ 2.39 to 4.78 µM) | < 1 µg/mL | < 1 µg/mL | 2 to 4 µg/mL (≈ 2.39 to 4.78 µM) | < 1 µg/mL |  |  |  |  |  | 
2 | O=C(O)c1c(F)ccc2c1OB(O)[C@@H](NC(=O)[C@H](NC(=O)N1CCN(C3CCN(C(=O)Nc4ccc(O)cc4)CC3)C(=O)C1=O)c1cc(F)c(O)c(O)c1Cl)C2 (single isomer, unassigned) [Example 426] | 4.30 to 5.00 | 4.30 to 5.00 | 2 to 4 µg/mL (≈ 2.5 to 4.99 µM) |  |  | < 1 µg/mL |  |  |  |  | < 1 µg/mL | < 1 µg/mL | < 1 µg/mL | < 1 µg/mL | 2 to 4 µg/mL (≈ 2.5 to 4.99 µM) | 2 to 4 µg/mL (≈ 2.5 to 4.99 µM) | 8 to 16 µg/mL (≈ 9.99 to 20 µM) | 2 to 4 µg/mL (≈ 2.5 to 4.99 µM)
3 | O=C(O)c1c(F)ccc2c1OB(O)[C@@H](NC(=O)[C@H](NC(=O)N1CCN(C3CCN(C(=O)c4cccc(O)c4F)CC3)C1=O)c1cc(F)c(O)c(O)c1Cl)C2 (single isomer, unassigned) [Example 431] | > 5.00 | > 5.00 | < 1 µg/mL |  |  | < 1 µg/mL |  |  |  |  | < 1 µg/mL | < 1 µg/mL | < 1 µg/mL | < 1 µg/mL | < 1 µg/mL | < 1 µg/mL | < 1 µg/mL | < 1 µg/mL
4 | O=C(O)c1c(F)ccc2c1OB(O)[C@@H](NC(=O)[C@H](NC(=O)N1CCN(C3CCN(C(=O)Nc4cccc(O)c4Cl)CC3)C(=O)C1=O)c1cc(F)c(O)c(O)c1Cl)C2 [Example 482, (R)-3-((R)-2-(4-(1-((2-chloro-3-hydroxyphenyl)carbamoyl)piperidin-4-yl)-2,3-dioxopiperazine-1-carboxamido)-2-(2-chloro-5-fluoro-3,4-dihydroxyphenyl)acetamido)-7-fluoro-2-hydroxy-3,4-dihydro-2H-benzo[e][1,2]oxaborinine-8-carboxylic acid] | 4.30 to 5.00 | 4.30 to 5.00 | 2 to 4 µg/mL (≈ 2.39 to 4.79 µM) |  |  | < 1 µg/mL |  |  |  |  | 2 to 4 µg/mL (≈ 2.39 to 4.79 µM) | 2 to 4 µg/mL (≈ 2.39 to 4.79 µM) | < 1 µg/mL | < 1 µg/mL | < 1 µg/mL | 2 to 4 µg/mL (≈ 2.39 to 4.79 µM) | < 1 µg/mL | < 1 µg/mL
5 | O=C(O)c1c(F)ccc2c1OB(O)[C@@H](NC(=O)[C@H](NC(=O)N1CCN(C3CCN(C(=O)c4ccc(F)c(O)c4)CC3)C1=O)c1cc(F)c(O)c(O)c1Cl)C2 (single isomer, unassigned) [Example 435] | > 5.00 | > 5.00 | < 1 µg/mL |  |  | < 1 µg/mL |  |  |  |  | < 1 µg/mL | < 1 µg/mL | < 1 µg/mL | < 1 µg/mL | < 1 µg/mL | < 1 µg/mL | < 1 µg/mL | < 1 µg/mL
6 | O=C(O)c1c(F)ccc2c1OB(O)[C@@H](NC(=O)[C@H](NC(=O)N1CCN(C3CCN(C(=O)c4ccc(O)cc4)CC3)C1=O)c1cc(F)c(O)c(O)c1Cl)C2 (single isomer, unassigned) [Example 463] | > 5.00 | > 5.00 | < 1 µg/mL |  |  | < 1 µg/mL |  |  |  |  | < 1 µg/mL | < 1 µg/mL | < 1 µg/mL | < 1 µg/mL | < 1 µg/mL | < 1 µg/mL | < 1 µg/mL | < 1 µg/mL
7 | O=C(O)c1c(F)ccc2c1OB(O)[C@@H](NC(=O)[C@H](NC(=O)N1CCN(C3CCN(C(=O)c4c(F)ccc(O)c4Cl)CC3)C1=O)c1cc(F)c(O)c(O)c1Cl)C2 (single isomer, unassigned) [Example 440] | > 5.00 | > 5.00 | < 1 µg/mL |  |  | < 1 µg/mL |  |  |  |  | < 1 µg/mL | < 1 µg/mL | < 1 µg/mL | < 1 µg/mL | < 1 µg/mL | < 1 µg/mL | < 1 µg/mL | < 1 µg/mL
8 | O=C(O)c1c(F)ccc2c1OB(O)[C@@H](NC(=O)C(NC(=O)N1CCN(C3CCN(S(=O)(=O)Cc4cccc(O)c4)CC3)C(=O)C1=O)c1cc(F)c(O)c(O)c1Cl)C2 (stereo partly drawn) [Example 485, (3R)-3-(2-(2-chloro-5-fluoro-3,4-dihydroxyphenyl)-2-(4-(1-((3-hydroxybenzyl)sulfonyl)piperidin-4-yl)-2,3-dioxopiperazine-1-carboxamido)acetamido)-7-fluoro-2-hydroxy-3,4-dihydro-2H-benzo[e][1,2]oxaborinine-8-carboxylic acid] | > 5.00 | > 5.00 | 2 to 4 µg/mL (≈ 2.39 to 4.78 µM) |  |  | < 1 µg/mL |  |  |  |  | 2 to 4 µg/mL (≈ 2.39 to 4.78 µM) | < 1 µg/mL | < 1 µg/mL | < 1 µg/mL | < 1 µg/mL | < 1 µg/mL | < 1 µg/mL | < 1 µg/mL
9 | O=C(O)c1c(F)ccc2c1OB(O)[C@@H](NC(=O)C(NC(=O)N1CCN(C3CCN(C(=O)Nc4cc(O)ccc4Cl)CC3)C(=O)C1=O)c1cc(F)c(O)c(O)c1Cl)C2 (stereo partly drawn) [Example 483, (3R)-3-(2-(2-chloro-5-fluoro-3,4-dihydroxyphenyl)-2-(4-(1-((2-chloro-5-hydroxyphenyl)carbamoyl)piperidin-4-yl)-2,3-dioxopiperazine-1-carboxamido)acetamido)-7-fluoro-2-hydroxy-3,4-dihydro-2H-benzo[e][1,2]oxaborinine-8-carboxylic acid] | > 5.00 | 4.30 to 5.00 | 2 to 4 µg/mL (≈ 2.39 to 4.79 µM) |  |  | < 1 µg/mL |  |  |  |  | > 128 µg/mL | 2 to 4 µg/mL (≈ 2.39 to 4.79 µM) | < 1 µg/mL | < 1 µg/mL | < 1 µg/mL | 8 to 16 µg/mL (≈ 9.58 to 19.2 µM) | 2 to 4 µg/mL (≈ 2.39 to 4.79 µM) | < 1 µg/mL
